Data: ChEMBL document CHEMBL1949599, “Three novel cyclic hexapeptides from Streptomyces alboflavus 313 and their antibacterial activity” (2012)
≈ marks a conversion by molar mass, not a printed value.

Assays:
Assay type in all cases: functional
[1] = test system: Staphylococcus aureus; assay: Antibacterial activity against methicillin-resistant Staphylococcus aureus after 24 hrs by micro-broth dilution method
[2] = test system: Escherichia coli; assay: Antibacterial activity against Escherichia coli CGMCC 1.1574 after 24 hrs by micro-broth dilution method; conditions: CGMCC 1.1574, 24 h
[3] = test system: Bacillus subtilis; assay: Antibacterial activity against Bacillus subtilis CGMCC 1.88 after 24 hrs by micro-broth dilution method; conditions: CGMCC 1.88, 24 h
[4] = test system: Bacillus cereus; assay: Antibacterial activity against Bacillus cereus CGMCC 1.1846 after 24 hrs by micro-broth dilution method; conditions: CGMCC 1.1846, 24 h
[5] = test system: Pseudomonas aeruginosa; assay: Antibacterial activity against Pseudomonas aeruginosa CGMCC 1.2031 after 24 hrs by micro-broth dilution method; conditions: CGMCC 1.2031, 24 h
[6] = test system: Staphylococcus aureus; assay: Antibacterial activity against Staphylococcus aureus CGMCC 1.89 after 24 hrs by micro-broth dilution method; conditions: CGMCC 1.89, 24 h

What does the source list for CC(C)[C@@H]1NC(=O)[C@@H]2C[C@@]3(O)c4ccc(Cl)cc4N[C@H]3N2C(=O)[C@H]2CCCNN2C(=O)[C@@H](C)N(C)C(=O)[C@H]2CCCNN2C(=O)[C@@H]2CCCNN2C1=O?
MIC [1]: 6.25 µg/mL (≈ 8.25 µM); MIC [2]: > 100 µg/mL; MIC [3]: 12.5 µg/mL (≈ 16.5 µM); MIC [4]: 12.5 µg/mL (≈ 16.5 µM); MIC [5]: > 100 µg/mL; MIC [6]: 6.25 µg/mL (≈ 8.25 µM)

With CC(C)[C@H]1NC(=O)[C@@H]2C[C@@]3(O)c4ccc(Cl)cc4N[C@H]3N2C(=O)[C@H]2CCCNN2C(=O)[C@@H](C)NC(=O)[C@H]2CCCNN2C(=O)[C@@H]2CCCNN2C1=O as the molecule, how does the MIC [1] read?
Its MIC is over 100 µg/mL.

What about the MIC [2] of the same molecule?
The MIC was over 100 µg/mL.

And the MIC [3]?
The MIC was over 100 µg/mL.

And the MIC [4]?
The MIC was over 100 µg/mL.

And the MIC [5]?
The MIC was over 100 µg/mL.

What about the MIC [6] of the same molecule?
The MIC was over 100 µg/mL.

COC1=CC2C(=O)N(C)[C@@H](C)C(=O)N3NCCC[C@@H]3C(=O)N3[C@@H](C[C@@]4(O)c5ccc(Cl)cc5N[C@@H]34)C(=O)N[C@H](C(C)C)C(=O)N3NCCC[C@@H]3C(=O)N2N=C1 (stereo not given in full) was tested. Which MIC [1] did it give?
Its MIC is 1.56 µg/mL (≈ 1.99 µM).

And the MIC [2]?
Its MIC is over 100 µg/mL.

And the MIC [3]?
The MIC was 3.13 µg/mL (≈ 4 µM).

And the MIC [4]?
The MIC was 3.13 µg/mL (≈ 4 µM).

What about the MIC [5] of the same molecule?
Its MIC is over 100 µg/mL.

And the MIC [6]?
The MIC was 1.56 µg/mL (≈ 1.99 µM).

COC1C=NN2C(=O)[C@H]3CCCNN3C(=O)[C@@H](C(C)C)NC(=O)[C@@H]3C[C@@]4(O)c5ccc(Cl)cc5N[C@H]4N3C(=O)[C@H]3CCCNN3C(=O)[C@H](C)N(C)C(=O)C2C1 (stereo not given in full) was tested. Which MIC [1] did it give?
The MIC was 25 µg/mL (≈ 31.8 µM).

What about the MIC [2] of the same molecule?
The MIC was over 100 µg/mL.

What about the MIC [3] of the same molecule?
The MIC was 25 µg/mL (≈ 31.8 µM).

What about the MIC [4] of the same molecule?
The MIC was 25 µg/mL (≈ 31.8 µM).

What about the MIC [5] of the same molecule?
Its MIC is over 100 µg/mL.

What about the MIC [6] of the same molecule?
Its MIC is 25 µg/mL (≈ 31.8 µM).

Which MIC [1] does the source give for CC1(C)S[C@@H]2[C@H](NC(=O)[C@H](N)c3ccccc3)C(=O)N2[C@H]1C(=O)[O-].[Na+] [AMPICILLIN SODIUM] here?
Its MIC is over 100 µg/mL.

What about the MIC [2] of the same molecule?
The MIC was 3.13 µg/mL.

And the MIC [3]?
Its MIC is 1.56 µg/mL.

What about the MIC [4] of the same molecule?
The MIC was 6.25 µg/mL.

And the MIC [5]?
The MIC was over 100 µg/mL.

And the MIC [6]?
The MIC was 6.25 µg/mL.
